# Biological target: FXR (Homo sapiens (Human), UniProt Q96RI1)
# Assay: FXR EC50 (FXR agonist activity reported with each example)
# Type: cell-based
# Sequence of FXR (Q96RI1 262-486): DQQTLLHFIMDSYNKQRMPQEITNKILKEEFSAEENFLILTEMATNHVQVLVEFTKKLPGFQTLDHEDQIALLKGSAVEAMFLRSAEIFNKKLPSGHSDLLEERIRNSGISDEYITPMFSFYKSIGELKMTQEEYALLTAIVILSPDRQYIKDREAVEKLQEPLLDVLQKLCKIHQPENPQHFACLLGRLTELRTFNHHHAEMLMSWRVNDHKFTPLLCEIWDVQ
row,SMILES,EC50 [nM]
1,"O=C(O)Cc1ccccc1OCC12CCC(OCc3c(-c4c(Cl)cccc4Cl)noc3C3CC3)(CC1)CC2 [Example 116, 2-(2-((4-((5-cyclopropyl-3-(2,6-dichlorophenyl)isoxazol-4-yl)methoxy)bicyclo[2.2.2]octan-1-yl)methoxy)phenyl)acetic acid]",900
2,"O=C(O)c1cc(F)cc2nc(OCC34CCC(OCc5c(-c6c(Cl)cncc6Cl)noc5C5CC5)(CC3)CC4)sc12 [Example 463, 2-((4-((5-cyclopropyl-3-(3,5-dichloropyridin-4-yl)isoxazol-4-yl)methoxy)bicyclo[2.2.2]octan-1-yl)methoxy)-5-fluorobenzo[d]thiazole-7-carboxylic acid]",41
3,O=C(O)c1cccc2nc(C34CCC(C=Cc5c(-c6ccccc6OC(F)(F)F)noc5C5CC5)(CC3)CC4)sc12 [Example 183],13
4,CC(C)COc1cc(C(=O)O)nc2ccc(OCC34CCC(OCc5c(-c6c(Cl)cncc6Cl)noc5C5CC5)(CC3)CC4)cc12 [Example 355],18
5,"O=C(O)c1cc(OCC23CCC(/C=C/c4c(-c5c(Cl)cncc5Cl)noc4C4CC4)(CC2)CC3)cc(OC(F)F)c1 [Example 444, (E)-3-((4-(2-(5-cyclopropyl-3-(3,5-dichloropyridin-4-yl)isoxazol-4-yl)vinyl)bicyclo[2.2.2]octan-1-yl)methoxy)-5-(difluoromethoxy)benzoic acid]",16
6,"O=C(O)c1cnc(N2CC(F)C2)c(C#CC23CCC(OCc4c(-c5c(Cl)cncc5Cl)noc4C4CC4)(CC2)CC3)c1 [Example 523, 5-((4-((5-cyclopropyl-3-(3,5-dichloropyridin-4-yl)isoxazol-4-yl)methoxy)bicyclo[2.2.2]octan-1-yl)ethynyl)-6-(3-fluoroazetidin-1-yl)nicotinic acid]",24
7,CS(=O)(=O)NC(=O)c1cccc(C23CCC(COCc4c(-c5c(Cl)cccc5Cl)noc4C4CC4)(CC2)CO3)c1 [Example 215],1600
8,"O=C(O)c1ccc2c(c1)CN(CC13CCC(OCc4c(-c5c(Cl)cccc5Cl)noc4C4CC4)(CC1)CC3)CC2 [Example 362, 2-((4-((5-cyclopropyl-3-(2,6-dichlorophenyl)isoxazol-4-yl)methoxy)bicyclo[2.2.2]octan-1-yl)methyl)-1,2,3,4-tetrahydroisoquinoline-7-carboxylic acid]",170
9,"COc1ccc(-c2noc(C34CCC(/C=C/c5c(-c6c(Cl)cncc6Cl)noc5C5CC5)(CC3)CC4)n2)cc1C(=O)NS(=O)(=O)C1CC1 [Example 439, (E)-5-(5-(4-(2-(5-cyclopropyl-3-(3,5-dichloropyridin-4-yl)isoxazol-4-yl)vinyl)bicyclo[2.2.2]octan-1-yl)-1,2,4-oxadiazol-3-yl)-N-(cyclopropylsulfonyl)-2-methoxybenzamide]",280
10,O=C(O)c1cc(OCC2COC2)c2cc(OCC34CCC(OCc5c(-c6c(Cl)cncc6Cl)noc5C5CC5)(CC3)CC4)ccc2n1 [Example 360],140
11,O=C(O)c1cc(C#CC23CCC(OCc4c(-c5c(Cl)cncc5Cl)noc4C4CC4)(CC2)CC3)cn2ccnc12 [Example 404],140
12,O=C(O)c1cccc2nc(C34CCC(C=Cc5c(-c6c(Cl)cccc6Cl)noc5C5CC5)(CC3)CC4)sc12 [Example 184],20
13,O=C(O)c1ncc(OCC23CCC(OCc4c(-c5c(Cl)cncc5Cl)noc4C4CC4)(CC2)CC3)cc1OC1CCC1 [Example 339],28
14,"NC(=O)c1cccc(OCC23CCC(OCc4c(-c5c(Cl)cccc5Cl)noc4C4CC4)(CC2)CC3)n1 [Example 117, 6-((4-((5-cyclopropyl-3-(2,6-dichlorophenyl)isoxazol-4-yl)methoxy)bicyclo[2.2.2]octan-1-yl)methoxy)picolinamide]",310
15,"COc1cc(C(=O)O)ccc1OCC12CCC(/C=C/c3c(-c4c(Cl)cncc4Cl)noc3C3CC3)(CC1)CC2 [Example 450, (E)-4-((4-(2-(5-cyclopropyl-3-(3,5-dichloropyridin-4-yl)isoxazol-4-yl)vinyl)bicyclo[2.2.2]octan-1-yl)methoxy)-3-methoxybenzoic acid]",18
16,"O=C(O)c1ccc2cc(C(O)C34CCC(OCc5c(-c6c(Cl)cccc6Cl)noc5C5CC5)(CC3)CC4)ccc2c1 (centres unmarked) [Example 126, 6-((4-((5-cyclopropyl-3-(2,6-dichlorophenyl)isoxazol-4-yl)methoxy)bicyclo[2.2.2]octan-1-yl)(hydroxy)methyl)-2-naphthoic acid]",600
17,CCn1nc(C(=O)O)c2ccc(C34CCC(OCc5c(-c6c(Cl)cncc6Cl)noc5C5CC5)(CC3)CC4)nc21 [Example 403],4
18,"CC(C)Oc1cc(-c2noc(C34CCC(OCc5c(-c6c(Cl)cnn6C)noc5C5CC5)(CC3)CC4)n2)cc(C(=O)O)n1 [Example 274, 4-(5-(4-((3-(4-chloro-1-methyl-1H-pyrazol-5-yl)-5-cyclopropylisoxazol-4-yl)methoxy)bicyclo[2.2.2]octan-1-yl)-1,2,4-oxadiazol-3-yl)-6-isopropoxypicolinic acid]",890

row,SMILES,EC50 [nM]
1,"Oc1ccc(-c2noc(C34CCC(OCc5c(-c6c(Cl)cncc6Cl)noc5C5CC5)(CC3)CC4)n2)cc1-c1nnn[nH]1 [Example 242, 4-(5-(4-((5-cyclopropyl-3-(3,5-dichloropyridin-4-yl)isoxazol-4-yl)methoxy)bicyclo[2.2.2]octan-1-yl)-1,2,4-oxadiazol-3-yl)-2-(1H-tetrazol-5-yl)phenol]",1400
2,"COc1c(C(=O)O)cc(F)cc1-c1noc(C23CCC(OCc4c(-c5c(Cl)cncc5Cl)noc4C4CC4)(CC2)CC3)n1 [Example 245, 3-(5-(4-((5-cyclopropyl-3-(3,5-dichloropyridin-4-yl)isoxazol-4-yl)methoxy)bicyclo[2.2.2]octan-1-yl)-1,2,4-oxadiazol-3-yl)-5-fluoro-2-methoxybenzoic acid]",46
3,"O=C(O)c1ccc(-c2noc(C34CCC(C=Cc5c(-c6c(Cl)cccc6Cl)noc5C5CC5)(CC3)C4)n2)cc1 [Example 226, 4-(5-(4-(2-(5-cyclopropyl-3-(2,6-dichlorophenyl)isoxazol-4-yl)vinyl)bicyclo[2.2.1]heptan-1-yl)-1,2,4-oxadiazol-3-yl)benzoic acid]",420
4,"O=C(O)c1cccc(CNC(=O)C23CCC(OCc4c(-c5c(Cl)cccc5Cl)noc4C4CC4)(CC2)CC3)c1 [Example 143, 3-((4-((5-cyclopropyl-3-(2,6-dichlorophenyl)isoxazol-4-yl)methoxy)bicyclo[2.2.2]octane-1-carboxamido)methyl)benzoic acid]",1300
5,"O=C(O)c1cccc(-c2noc(C34CC(COCc5c(-c6c(Cl)cccc6Cl)noc5C5CC5)(C3)C4)n2)c1 [Example 514, 3-(5-(3-(((5-cyclopropyl-3-(2,6-dichlorophenyl)isoxazol-4-yl)methoxy)methyl)bicyclo[1.1.1]pentan-1-yl)-1,2,4-oxadiazol-3-yl)benzoic acid]",1700
6,"COc1cc(C(=O)O)c(F)c(-c2noc(C34CCC(OCc5c(-c6c(Cl)cncc6Cl)noc5C5CC5)(CC3)CC4)n2)c1 [Example 244, 3-(5-(4-((5-cyclopropyl-3-(3,5-dichloropyridin-4-yl)isoxazol-4-yl)methoxy)bicyclo[2.2.2]octan-1-yl)-1,2,4-oxadiazol-3-yl)-2-fluoro-5-methoxybenzoic acid]",230
7,"O=C(O)CC1CCN(C(=O)C23CCC(OCc4c(-c5c(Cl)cccc5Cl)noc4C4CC4)(CC2)CC3)CC1 [Example 145, 2-(1-(4-((5-cyclopropyl-3-(2,6-dichlorophenyl)isoxazol-4-yl)methoxy)bicyclo[2.2.2]octane-1-carbonyl)piperidin-4-yl)acetic acid]",3800
8,"O=C(O)c1cccc(-c2noc(C34CCC(OCc5c(-c6c(Cl)cncc6Cl)noc5C5CC5)(CC3)CC4)n2)c1 [Example 232, 3-(5-(4-((5-cyclopropyl-3-(3,5-dichloropyridin-4-yl)isoxazol-4-yl)methoxy)bicyclo[2.2.2]octan-1-yl)-1,2,4-oxadiazol-3-yl)benzoic acid]",100
9,O=C(O)c1cccc(NC(=O)C23CCC(C=Cc4c(-c5c(Cl)cccc5Cl)noc4C4CC4)(CC2)C3)c1 [Example 230],890
10,O=C(O)c1cc(OC2CCC2)c2cc(OCC34CCC(OCc5c(-c6c(Cl)cncc6Cl)noc5C5CC5)(CC3)CC4)ccc2n1 [Example 344],17
11,O=C(O)c1cccc(NCC23CCC(OCc4c(-c5ccccc5OC(F)(F)F)noc4C4CC4)(CC2)CC3)c1 [Example 85],610
12,O=C(O)c1ccc(-c2noc(C34CCC(COCc5c(-c6ccccc6OC(F)(F)F)noc5C5CC5)(CC3)CC4)n2)cc1 [Example 154],960
13,"O=C(O)c1cccc2nc(C34CCC(CCc5c(-c6ccccc6OC(F)(F)F)noc5C5CC5)(CC3)CC4)sc12 [Example 456, 2-(4-(2-(5-cyclopropyl-3-(2-(trifluoromethoxy)phenyl)isoxazol-4-yl)ethyl)bicyclo[2.2.2]octan-1-yl)benzo[d]thiazole-7-carboxylic acid]",22
14,"COC1CN(c2cc(C(=O)O)nc3ccc(OCC45CCC(OCc6c(-c7c(Cl)cncc7Cl)noc6C6CC6)(CC4)CC5)cc23)C1 [Example 329, 6-((4-((5-cyclopropyl-3-(3,5-dichloropyridin-4-yl)isoxazol-4-yl)methoxy)bicyclo[2.2.2]octan-1-yl)methoxy)-4-(3-methoxyazetidin-1-yl)quinoline-2-carboxylic acid]",1400
15,O=C(O)c1cc(C#CC23CCC(OCc4c(-c5c(Cl)cncc5Cl)noc4C4CC4)(CC2)CC3)c2cc[nH]c2c1 [Example 416],40
16,O=C(O)c1ccc(-c2noc(C34CCC(OCc5c(-c6ccccc6OC(F)(F)F)noc5C5CC5)(CC3)CC4)n2)nc1 [Example 42],1500
17,"O=C(O)c1cc(OC(F)F)c2cc(OCC34CCC(/C=C/c5c(-c6c(Cl)cncc6Cl)noc5C5CC5)(CC3)CO4)ccc2n1 [Example 498, (E)-6-((4-(2-(5-cyclopropyl-3-(3,5-dichloropyridin-4-yl)isoxazol-4-yl)vinyl)-2-oxabicyclo[2.2.2]octan-1-yl)methoxy)-4-(difluoromethoxy)quinoline-2-carboxylic acid]",250
